≈ marks a conversion by molar mass, not a printed value.
Assays:
Escherichia coli K12 = test system: T1, Escherichia coli K12; assay: microbe, parasite or virus in culture; parameters: broth microdilution growth inhibition, OD595, overnight; MIC50 = concentration reducing growth by 50%; settings: MIC50, 50% growth reduction
T1 construct: K12
Protocol: (§1) P. fluorescens Pf-5, E. coli (TOP10 or C43), B. subtilis (W23) or M. flavus colonies were isolated from an agar plate and inoculated in 5 mL of Luria-Bertani broth overnight at 37 °C. E. coli C43/pET28a-mraY was grown in Luria-Bertani media containing 50 μg mL^−1 kanamycin. […] Serial dilutions of 125, 62.5, 31.25, 15.63, 7.82, 3.90, 1.95 and 0.97 μg mL^−1 test compound were prepared. 10 μL of water, MeOH and DMSO were added to separate wells to serve as a growth control. Each test condition was tested in triplicate. The 96-well plate was covered and incubated overnight at 30 or 37 °C. Optical density (OD595) was measured using a HIDEX Sense microplate reader 425–301. The inhibitor concentration which reduced the growth by 50% was measured as the MIC50 of the compound. The set of analogues were tested for antimicrobial activity against laboratory strains of E. coli K12, B. subtilis W23, and Pseudomonas fluorescens Pf-5.

[1] = test system: T2, Pseudomonas fluorescens Pf-5; assay: microbe, parasite or virus in culture; parameters: broth microdilution growth inhibition, OD595, overnight; MIC50 = concentration reducing growth by 50%; settings: PF5, MIC50, 50% growth reduction
T2 construct: Pf-5
Protocol: as §1

Bacillus subtilis W23 = test system: T3, Bacillus subtilis W23; assay: microbe, parasite or virus in culture; parameters: broth microdilution growth inhibition, OD595, overnight; MIC50 = concentration reducing growth by 50%; settings: MIC50, 50% growth reduction
T3 construct: W23
Protocol: as §1

[2] = molecular target: T4, translocase MraY (phospho-MurNAc-pentapeptide translocase) (Escherichia coli, UniProt P0A6W3); assay: biochemical; parameters: continuous fluorescence enhancement assay, dansyl-UDPMurNAc-pentapeptide to dansyl-lipid I, membranes overexpressing E. coli MraY
T4 construct: membranes containing overexpressed E. coli MraY
T4 sequence (P0A6W3 1-360): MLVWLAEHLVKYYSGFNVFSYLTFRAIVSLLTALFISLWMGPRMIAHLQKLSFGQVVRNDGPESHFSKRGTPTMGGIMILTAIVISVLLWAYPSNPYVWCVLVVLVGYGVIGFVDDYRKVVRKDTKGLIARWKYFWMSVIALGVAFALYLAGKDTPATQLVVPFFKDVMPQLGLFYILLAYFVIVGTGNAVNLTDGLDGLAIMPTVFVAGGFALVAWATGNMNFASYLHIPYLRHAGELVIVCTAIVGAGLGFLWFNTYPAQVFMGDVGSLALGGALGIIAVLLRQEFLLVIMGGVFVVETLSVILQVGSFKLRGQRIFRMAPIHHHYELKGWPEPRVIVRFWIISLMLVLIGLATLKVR
Protocol: UDP-MurNAc-L-Ala-γ-D-Glu-L-Lys-D-Ala-D-Ala was prepared enzymatically using the methods described by Lloyd et al.,[32] and was converted to UDP-MurNAc-L-Ala-γ-D-Glu-L-Lys(Nε-dansyl)-D-Ala-D-Ala using the method of Brandish et al.[5] The MraY-catalysed reaction was monitored on a HIDEX Sense microplate reader 425–301 (λex 340 nm, λem 530 nm). To monitor the formation of dansyl-lipid I, membranes containing overexpressed E. coli MraY (15 μL of 0.6 mg mL^−1 stock) were incubated with UDP-MurNAc-L-Ala-γ-D-Glu-L-Lys(Nε-dansyl)-D-Ala-D-Ala (25 μM), undecaprenyl phosphate (30 μM, from stock solution in […] Tris buffer pH 7.5 containing 2 mM β-mercaptoethanol, 1 mM MgCl2, 20% glycerol, 0.5% Triton X-100), in 100 mM Tris buffer pH 7.5 containing 25 mM MgCl2, in a total volume of 100 μL. Test compounds were assayed at 200 μM final concentration, in triplicate assays, and compound 6d was assayed at 25–200 μM concentration in triplicate assays. Tunicamycin (20 μM) was used as a positive control for enzyme inhibition assays. Membranes containing overexpressed E. coli R288L mutant MraY were prepared as described in Rodolis et al.[16] Radiochemical assays were carried out using membranes containing overexpressed E. coli MraY as described in Mihalyi et al.[19] The set of analogues were assayed against particulate E. coli MraY from overexpressed membranes, using a fluorescence enhancement assay with fluorescent substrate UDPMurNAc-L-Ala-γ-D-Glu-L-Lys(ε-N-dansyl)-D-Ala-D-Ala, used previously to assay MraY.[5,16,17]

[3] = molecular target: T5, translocase MraY (phospho-MurNAc-pentapeptide translocase) (Escherichia coli, UniProt P0A6W3); assay: continuous fluorescence assay with dansyl-UDPMurNAc-pentapeptide, overexpressed membranes; assay type: biochemical
T5 construct: membranes containing overexpressed E. coli MraY
Text: continuous fluorescence assay with dansyl-UDPMurNAc-pentapeptide, overexpressed membranes on translocase MraY (phospho-MurNAc-pentapeptide translocase) | highest enzyme inhibition shown by compound 6d.

[4] = molecular target: T5, translocase MraY (phospho-MurNAc-pentapeptide translocase); assay: continuous fluorescence assay, % inhibition at […], overexpressed membranes; assay type: biochemical

SMILES | MIC50 (Escherichia coli K12) [µg/mL] | MIC50 (Bacillus subtilis W23) [µg/mL] | inhibition at 200 µM ([2]; continuous fluorescence assay) [%] | MIC50 [1] [µg/mL] | IC50 [3] [µM] | inhibition at 200 µM ([2]; read-out: % MraY inhibition @200 μM) [%] | inhibition at 200 µM [4] [%]
CCCCCCCCn1c(=O)nc(NCCN)n(Cc2ccccc2)c1=O [6a] | 16 (≈ 42.8 µM) | 8 (≈ 21.4 µM) | 36 | 64 (≈ 171 µM) |  |  | 
CCCCCCCCn1c(=O)nc(NCCN)n(Cc2ccc(OC)cc2)c1=O [6b] | 16 (≈ 39.7 µM) | 8 (≈ 19.8 µM) | 50 | 32 (≈ 79.3 µM) |  |  | 
CCCCCCCCn1c(=O)nc(NCCN)n(Cc2cccc(OC)c2)c1=O [6c] | 64 (≈ 159 µM) | 32 (≈ 79.3 µM) | 42 | > 256 |  |  | 
CCCCCCCCn1c(=O)nc(NCCN)n(Cc2ccccc2OC)c1=O [6d] | 64 (≈ 159 µM) | 32 (≈ 79.3 µM) |  | > 256 | 48 | 80 | 
CCCCCCCCn1c(=O)nc(NCCN)n(Cc2ccc(Br)cc2)c1=O [6g] | 16 (≈ 35.4 µM) | 16 (≈ 35.4 µM) |  | 64 (≈ 141 µM) |  |  | 68
CCCCCCCCn1c(=O)nc(NCCN)n(Cc2ccc([N+](=O)[O-])cc2)c1=O [6h] | 64 (≈ 153 µM) | 32 (≈ 76.5 µM) |  | > 256 |  |  | 63
CCCCCCCCn1c(=O)nc(NCCN)n(Cc2ccc(C(F)(F)F)cc2)c1=O [6j] | 64 (≈ 145 µM) | 32 (≈ 72.5 µM) |  | > 256 |  |  | 59
CCCCCCCCn1c(=O)nc(NCCNC(=N)N)n(Cc2cccc(OC)c2)c1=O [7c] | 16 (≈ 35.9 µM) | 4 (≈ 8.98 µM) |  | 32 (≈ 71.8 µM) |  |  | 57
CCCCCCCCn1c(=O)nc(NCCNC(=N)N)n(Cc2ccccc2OC)c1=O [7d] | 16 (≈ 35.9 µM) | 4 (≈ 8.98 µM) |  | > 256 |  |  | 57
CCCCCCCCn1c(=O)nc(NCCNC(=N)N)n(Cc2ccc(F)cc2)c1=O [7e] | 16 (≈ 36.9 µM) | 4 (≈ 9.23 µM) |  | 32 (≈ 73.8 µM) |  |  | 63
CCCCCCCCn1c(=O)nc(NCCNC(=N)N)n(Cc2ccc(Br)cc2)c1=O [7g] | 16 (≈ 32.4 µM) | 4 (≈ 8.09 µM) |  | 256 (≈ 518 µM) |  |  | 51
CCCCCCCCn1c(=O)nc(NCCNC(=N)N)n(Cc2ccc([N+](=O)[O-])cc2)c1=O [7h] | 64 (≈ 139 µM) | 32 (≈ 69.5 µM) |  | 256 (≈ 556 µM) |  |  | 70
CCCCCCCCn1c(=O)nc(NCCN)n(C(CCc2ccccc2)c2ccccc2)c1=O (stereo not shown) [compound 13, 13] | 256 (≈ 536 µM) | 128 (≈ 268 µM) |  |  |  |  | 64

Second part, led by results:

MIC50 (Escherichia coli K12) [µg/mL] | MIC50 (Bacillus subtilis W23) [µg/mL] | inhibition at 200 µM ([2]; continuous fluorescence assay) [%] | SMILES | MIC50 [1] [µg/mL] | IC50 [3] [µM] | inhibition at 200 µM ([2]; read-out: % MraY inhibition @200 μM) [%] | inhibition at 200 µM [4] [%]
64 (≈ 163 µM) | 32 (≈ 81.7 µM) | 35 | CCCCCCCCn1c(=O)nc(NCCN)n(Cc2ccc(F)cc2)c1=O [6e] | 128 (≈ 327 µM) |  |  | 
8 (≈ 19.6 µM) | 4 (≈ 9.81 µM) | 15 | CCCCCCCCn1c(=O)nc(NCCN)n(Cc2ccc(Cl)cc2)c1=O [6f] | 64 (≈ 157 µM) |  |  | 
16 (≈ 38.5 µM) | 8 (≈ 19.3 µM) | 41 | CCCCCCCCn1c(=O)nc(NCCNC(=N)N)n(Cc2ccccc2)c1=O [7a] | 32 (≈ 77 µM) |  |  | 
16 (≈ 35.9 µM) | 2 (≈ 4.49 µM) | 48 | CCCCCCCCn1c(=O)nc(NCCNC(=N)N)n(Cc2ccc(OC)cc2)c1=O [7b] | 32 (≈ 71.8 µM) |  |  | 
8 (≈ 17.8 µM) | 8 (≈ 17.8 µM) | 42 | CCCCCCCCn1c(=O)nc(NCCNC(=N)N)n(Cc2ccc(Cl)cc2)c1=O [7f] | 32 (≈ 71.1 µM) |  |  | 
4 (≈ 8.27 µM) | 1 (≈ 2.07 µM) | 43 | CCCCCCCCn1c(=O)nc(NCCNC(=N)N)n(Cc2ccc(C(F)(F)F)cc2)c1=O [7j] | 16 (≈ 33.1 µM) |  |  | 
> 256 | > 256 | 39 | CCCCCCCCn1c(=O)nc(NCCO)n(Cc2ccccc2)c1=O [compound 11] |  |  |  | 
64 (≈ 154 µM) | 128 (≈ 307 µM) | 39 | CCCCCCCCn1c(=O)nc(NCCNC(N)=O)n(Cc2ccccc2)c1=O [compound 12] |  |  |  | 

Source: publication PMC11812184, “Antimicrobial triazinedione inhibitors of the translocase MraY–protein E interaction site: synergistic effects with bacitracin imply a new mechanism of action” (RSC Medicinal Chemistry, 2025)
